From paper PMC5372681, “Study of Different Variants of Mo Enzyme crARC and the Interaction with Its Partners crCytb5-R and crCytb5-1” (International Journal of Molecular Sciences, 2017)

Tests used:
Type in all cases: biochemical
crARC [1] = biological target: T1, crARC (Chlamydomonas reinhardtii, UniProt F8UWQ7, D182A); experiment: HPLC of adenine formed; details: 0.5 mM HAP, 3 mM dithionite, 2 mM benzylviologen, 100 mM potassium phosphate pH 7.4, 37 °C
T1 construct: gene ARC; N-terminal His6 (pQE80), E. coli TP1000, Ni-NTA

crARC [2] = biological target: T2, crARC (Chlamydomonas reinhardtii, UniProt F8UWQ7, R276A); experiment: HPLC of adenine formed; details: 0.5 mM HAP, 3 mM dithionite, 2 mM benzylviologen, 100 mM potassium phosphate pH 7.4, 37 °C
T2 construct: gene ARC; N-terminal His6 (pQE80), E. coli TP1000, Ni-NTA

crARC [3] = biological target: T3, crARC (Chlamydomonas reinhardtii, UniProt F8UWQ7); experiment: HPLC of adenine formed; details: 0.5 mM HAP, 3 mM dithionite, 2 mM benzylviologen, 100 mM potassium phosphate pH 7.4, 37 °C
T3 construct: gene ARC; N-terminal His6 (pQE80), E. coli TP1000, Ni-NTA

crARC [4] = biological target: T4, crARC (Chlamydomonas reinhardtii, UniProt F8UWQ7, F210A); experiment: HPLC of adenine formed; details: 0.5 mM HAP, 3 mM dithionite, 2 mM benzylviologen, 100 mM potassium phosphate pH 7.4, 37 °C
T4 construct: gene ARC; N-terminal His6 (pQE80), E. coli TP1000, Ni-NTA

crARC [5] = biological target: T3, crARC; experiment: HPLC of benzamidine formed; details: 1 mM benzamidoxime, 3 mM dithionite, 2 mM benzylviologen, 100 mM potassium phosphate pH 7.4, 37 °C

T3 sequence (F8UWQ7 entry or part of it): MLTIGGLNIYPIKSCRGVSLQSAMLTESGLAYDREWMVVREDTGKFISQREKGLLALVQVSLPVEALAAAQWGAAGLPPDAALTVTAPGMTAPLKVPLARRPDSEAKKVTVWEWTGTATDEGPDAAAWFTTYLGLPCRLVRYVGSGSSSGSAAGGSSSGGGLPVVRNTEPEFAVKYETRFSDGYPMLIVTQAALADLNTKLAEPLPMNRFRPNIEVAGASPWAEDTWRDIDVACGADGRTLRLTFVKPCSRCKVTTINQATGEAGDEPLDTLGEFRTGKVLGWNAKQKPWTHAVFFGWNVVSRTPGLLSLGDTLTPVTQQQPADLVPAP
T1 sequence (F8UWQ7 entry or part of it D182A): as the sequence (F8UWQ7 entry or part of it) above, with D182A counted along it
T4 sequence (F8UWQ7 entry or part of it F210A): as the sequence (F8UWQ7 entry or part of it) above, with F210A counted along it
T2 sequence (F8UWQ7 entry or part of it R276A): as the sequence (F8UWQ7 entry or part of it) above, with R276A counted along it

Row | Compound | HPLC of adenine formed (crARC [1]) | HPLC of adenine formed (crARC [2]) | HPLC of adenine formed (crARC [3]) | HPLC of adenine formed (crARC [4]) | HPLC of benzamidine formed (crARC [5])
1 | ONc1ncnc2[nH]cnc12 [HAP] | the mutants, D182A, F210A and R276A almost completely lost the mARC activity with dithionite | the mutants, D182A, F210A and R276A almost completely lost the mARC activity with dithionite | The crARC HAP reduction activity was determined with dithionite | the mutants, D182A, F210A and R276A almost completely lost the mARC activity with dithionite | 
2 | NC(=NO)c1ccccc1 [benzamidoxime] |  |  |  |  | the crARC activity was assayed in vitro using benzamidoxime as a substrate
